According to publication PMC8119466, “A screen of FDA-approved drugs identifies inhibitors of protein tyrosine phosphatase 4A3 (PTP4A3 or PRL-3)” (Scientific Reports, 2021):
Counter-ions that a name gives are not always drawn. Like-named read-outs stand apart in the source and are kept apart here.

Tests used:
Assay type in all cases: biochemical
recombinant PRL-2 = target: T1, recombinant PRL-2 (Homo sapiens, UniProt Q12974); assay: In vitro phosphatase assay (DiFMUP hydrolysis), PRL-2;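 further: PRL-2 activity read as DiFMUP hydrolysis after 20 min at room temperature with drug, enzyme first pre-reduced at 4 °C for 20 min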
T1 construct: 6xHis (N, cleaved yes); made in house; host or cells: E. coli One Shot BL21 Star
T1 sequence (Q12974 1-167): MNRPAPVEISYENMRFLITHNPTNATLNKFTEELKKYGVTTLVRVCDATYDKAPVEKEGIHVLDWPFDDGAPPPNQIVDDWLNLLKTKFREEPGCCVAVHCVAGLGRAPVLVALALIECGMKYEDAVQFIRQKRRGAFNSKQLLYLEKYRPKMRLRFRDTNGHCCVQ

recombinant PRL-1 = target: T2, recombinant PRL-1 (Homo sapiens, UniProt Q93096); assay: In vitro phosphatase assay (DiFMUP hydrolysis), PRL-1; further: test concentration or dose not given here
T2 construct: 6xHis (N, cleaved yes); made in house; host or cells: E. coli One Shot BL21 Star
T2 sequence (Q93096 1-173): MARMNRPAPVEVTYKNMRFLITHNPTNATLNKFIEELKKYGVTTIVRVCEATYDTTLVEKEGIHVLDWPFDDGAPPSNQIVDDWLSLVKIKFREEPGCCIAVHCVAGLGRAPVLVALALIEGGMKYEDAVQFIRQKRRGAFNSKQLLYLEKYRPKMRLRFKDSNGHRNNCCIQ

recombinant PRL-3 = target: T3, recombinant PRL-3 (Homo sapiens, UniProt O75365); assay: In vitro phosphatase assay (DiFMUP hydrolysis), PRL-3; further: test concentration or dose not given here
T3 construct: 6xHis (N, cleaved yes); made in house; host or cells: E. coli One Shot BL21 Star

[1] = FDA-approved drug screen, compared to DMSO
[2] = FDA-approved drug screen, activity compared to DMSO

T3 sequence (O75365 whole entry): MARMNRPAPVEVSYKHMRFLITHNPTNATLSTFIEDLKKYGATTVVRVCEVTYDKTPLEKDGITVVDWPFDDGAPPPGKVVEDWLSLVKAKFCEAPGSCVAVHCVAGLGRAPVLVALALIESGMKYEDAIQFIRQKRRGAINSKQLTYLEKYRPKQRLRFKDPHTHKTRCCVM

SMILES	% Phosphatase Activity (compared to DMSO) PRL-2 (recombinant PRL-2; [1])	% Phosphatase Activity (compared to DMSO) PRL-1 (recombinant PRL-1; [1])	% Phosphatase Activity (compared to DMSO) PRL-3 (recombinant PRL-3; [1])	% Phosphatase Activity (compared to DMSO) PRL-2 (recombinant PRL-2; [2])	% Phosphatase Activity (compared to DMSO) PRL-1 (recombinant PRL-1; [2])	% Phosphatase Activity (compared to DMSO) PRL-3 (recombinant PRL-3; [2])	further results
COc1ccc([C@H]2CNC(=O)C2)cc1OC1CCCC1 [S- (+)-Rolipram]	110%	107%	87%	–	–	–	–
CCn1c(=O)c(-c2cc[nH]n2)cc2c(C)nc(N)nc21 [SAR245409 (XL765)]	74%	89%	74%	–	–	–	–
C[C@H](NCc1ccc(OCc2cccc(F)c2)cc1)C(N)=O [Safinamide Mesylate]	112%	103%	86%	–	–	–	–
CC(C)(C)NCC(O)c1ccc(O)c(CO)c1.CC(C)(C)NCC(O)c1ccc(O)c(CO)c1.O=S(=O)(O)O (stereo not drawn) [Salbutamol Sulfate]	90%	94%	88%	–	–	–	–
O=C(O)c1ccccc1O [Salicylic acid]	124%	103%	98%	–	–	–	–
OCc1cc(C(O)CNCCCCCCOCCCCc2ccccc2)ccc1O (stereo not drawn) [Salmeterol Xinafoate]	136%	146%	110%	–	–	–	–
CN1CCN(CCOc2cc(OC3CCOCC3)c3c(Nc4c(Cl)ccc5c4OCO5)ncnc3c2)CC1 [Saracatinib (AZD0530)]	98%	99%	79%	–	–	–	–
O=C(O)c1cn(-c2ccc(F)cc2)c2cc(N3CCNCC3)c(F)cc2c1=O [Sarafloxacin HCl]	108%	108%	116%	–	–	–	–
N#C[C@@H]1C[C@@H]2C[C@@H]2N1C(=O)[C@@H](N)C12CC3CC(CC(O)(C3)C1)C2 [Saxagliptin hydrate]	80%	93%	86%	–	–	–	–
N#C[C@@H]1C[C@@H]2C[C@@H]2N1C(=O)[C@@H](N)C12CC3CC(CC(O)(C3)C1)C2 [Saxagliptin]	113%	106%	79%	–	–	–	–
Cc1ncc([N+](=O)[O-])n1CC(C)O (stereo not drawn) [Secnidazole]	102%	112%	81%	–	–	–	–
Cn1cnc2c(F)c(Nc3ccc(Br)cc3Cl)c(C(=O)NOCCO)cc21 [Selumetinib (AZD6244)]	93%	92%	87%	–	–	–	–
CC(C)[C@H](O)C(=O)N[C@@H](C)C(=O)N[C@@H]1C(=O)N(C)CCc2ccccc21 [Semagacestat (LY450139)]	120%	104%	86%	–	–	–	–
Cl.NCCc1c[nH]c2ccc(O)cc12 [Serotonin HCl]	101%	106%	80%	–	–	–	–
Clc1ccc(C(Cn2ccnc2)OCc2csc3c(Cl)cccc23)c(Cl)c1 (stereo not drawn) [Sertaconazole nitrate]	–	–	–	101%	110%	99%	–
CN[C@H]1CC[C@@H](c2ccc(Cl)c(Cl)c2)c2ccccc21 [Sertraline HCl]	–	–	–	101%	96%	75%	–
CCCc1nn(C)c2c(=O)[nH]c(-c3cc(S(=O)(=O)N4CCN(C)CC4)ccc3OCC)nc12 [Sildenafil Citrate]	–	–	–	88%	100%	84%	–
CCCc1nn(C)c2c(=O)[nH]c(-c3cc(S(=O)(=O)N4CCN(C)CC4)ccc3OCC)nc12.CS(=O)(=O)O [Sildenafil Mesylate]	–	–	–	79%	94%	94%	–
CCCc1nn(C)c2c(=O)[nH]c(-c3cc(S(=O)(=O)N4CCN(C)CC4)ccc3OCC)nc12 [Sildenafil]	–	–	–	72%	75%	99%	–
COc1cc(C2Oc3cc([C@H]4Oc5cc(O)cc(O)c5C(=O)[C@@H]4O)ccc3OC2CO)ccc1O (stereo partly drawn) [Silibinin]	–	–	–	87%	88%	87%	–

SMILES	% Phosphatase Activity (compared to DMSO) PRL-2 (recombinant PRL-2; [1])	% Phosphatase Activity (compared to DMSO) PRL-1 (recombinant PRL-1; [1])	% Phosphatase Activity (compared to DMSO) PRL-3 (recombinant PRL-3; [1])	% Phosphatase Activity (compared to DMSO) PRL-2 (recombinant PRL-2; [2])	% Phosphatase Activity (compared to DMSO) PRL-1 (recombinant PRL-1; [2])	% Phosphatase Activity (compared to DMSO) PRL-3 (recombinant PRL-3; [2])	further results
C[C@H](Cc1cc2c(c(C(N)=O)c1)N(CCCO)CC2)NCCOc1ccccc1OCC(F)(F)F [Silodosin]	–	–	–	104%	117%	95%	–
CCC(C)(C)C(=O)O[C@H]1C[C@@H](C)C=C2C=C[C@H](C)[C@H](CC[C@@H]3C[C@@H](O)CC(=O)O3)[C@H]21 [Simvastatin]	–	–	–	94%	84%	91%	–
CN[C@@H]1[C@@H](O)[C@@H](O[C@@H]2[C@@H](O)[C@H](O[C@H]3OC(CN)=CC[C@H]3N)[C@@H](N)C[C@H]2N)OC[C@]1(C)O [Sisomicin sulfate]	–	–	–	84%	83%	107%	–
N[C@@H]1CN(c2c(F)cc3c(=O)c(C(=O)O)cn([C@@H]4C[C@@H]4F)c3c2Cl)CC12CC2.O [Sitafloxacin Hydrate]	–	–	–	90%	91%	81%	–
N[C@@H](CC(=O)N1CCn2c(nnc2C(F)(F)F)C1)Cc1cc(F)c(F)cc1F [Sitagliptin phosphate monohydrate]	–	–	–	120%	117%	89%	–
CC(C)(C)C(=O)Oc1ccc(S(=O)(=O)Nc2ccccc2C(=O)NCC(=O)O)cc1 [Sivelestat sodium]	–	–	–	86%	89%	75%	–
Nc1ccc(C(=O)[O-])c(O)c1.[Na+] [Sodium 4-Aminosalicylate]	–	–	–	119%	90%	69%	–
Nc1ccc(C(=O)NCC(=O)[O-])cc1.O.[Na+] [Sodium 4-aminohippurate Hydrate]	–	–	–	87%	84%	84%	–
O=N[O-].[Na+] [Sodium Nitrite]	–	–	–	–	–	–	% Phosphatase Activity (compared to DMSO) PRL-2 (recombinant PRL-2): 116%; % Phosphatase Activity (compared to DMSO) PRL-1 (recombinant PRL-1): 94%; % Phosphatase Activity (compared to DMSO) PRL-3 (recombinant PRL-3): 75%
O=C(O)CCCc1ccccc1 [Sodium Phenylbutyrate]	–	–	–	110%	103%	82%	–
O=S(=O)(O)Oc1ccc(C(c2ccc(OS(=O)(=O)O)cc2)c2ccccn2)cc1 [Sodium Picosulfate]	–	–	–	110%	115%	81%	–
O=C1O[C@H]([C@@H](O)CO)C([O-])=C1O.[Na+] [Sodium ascorbate]	–	–	–	71%	85%	113%	–
CCCC(=O)[O-].[Na+] [Sodium butyrate]	–	–	–	90%	97%	89%	–
O=C([O-])c1ccccc1O.[Na+] [Sodium salicylate]	–	–	–	–	–	–	% Phosphatase Activity (compared to DMSO) PRL-2 (recombinant PRL-2): 103%; % Phosphatase Activity (compared to DMSO) PRL-1 (recombinant PRL-1): 130%; % Phosphatase Activity (compared to DMSO) PRL-3 (recombinant PRL-3): 95%
CC(C)OC(=O)[C@H](C)N[P@](=O)(OC[C@H]1O[C@@H](n2ccc(=O)[nH]c2=O)[C@](C)(F)[C@@H]1O)Oc1ccccc1 [Sofosbuvir (PSI-7977, GS-7977)]	–	–	–	96%	87%	89%	–
O=C(O[C@H]1CN2CCC1CC2)N1CCc2ccccc2[C@@H]1c1ccccc1 [Solifenacin succinate]	–	–	–	99%	88%	114%	–
CNC(=O)c1cc(Oc2ccc(NC(=O)Nc3ccc(Cl)c(C(F)(F)F)c3)cc2)ccn1 [Sorafenib Tosylate]	–	–	–	93%	85%	73%	–
CNC(=O)c1cc(Oc2ccc(NC(=O)Nc3ccc(Cl)c(C(F)(F)F)c3)cc2)ccn1 [Sorafenib]	–	–	–	80%	91%	95%	–
OC[C@@H](O)[C@@H](O)[C@H](O)[C@@H](O)CO [Sorbitol]	–	–	–	96%	105%	80%	–
